# Data published in US11649228B2, “Zinc indicators for cellular imaging” (The Board of Regents of the University of Texas System, priority 2018, dated 2023).
# Experiments:
# [1] = Metal ion selectivity of fluorescence response; assay type: physicochemical; settings: 1 μM sensor, 10 μM TPEN; against Na^+, K^+, Ca^2+, Mg^2+, Fe^2+, Ni^2+, Co^2+, Cu^2+, Mn^2+
# Description: To study the metal selectivity, the fluorescence of ZIGIR-1 (1 μM) or ZIGIR-2 (1 μM) was measured in the presence of 10 μM TPEN and an excess of metal ion including 1 mM KCl, 1 mM NaCl, 1 mM CaSO4, 1 mM MgSO4, 15 μM MnSO4, 15 μM FeSO4, 15 μM NiSO4, 15 μM CoCl2, 15 μM CuSO4, 15 μM CdSO4 or 15 μM ZnSO4. The emission intensity was normalized to that of 15 μM ZnSO4 (100%).
# [2] = tested on: primary mouse islet cells; test: Flow cytometry analysis and FACS of mouse islet cells labeled with ZIGIR-2 and Ex4-Cy5; assay type: cell-based
# Source text: Among islet endocrine cells, β-cells have long been known to contain a high level of total Zn^2+ in their secretory granules. However, it remains unclear how Zn^2+ activities differ among different types of secretory granules including the glucagon granule and the somatostatin granule. To address the question, the inventors combined ZIGIR-2 and flow cytometry to analyze the granular Zn^2+ activity in primary mouse islet cells. To facilitate distinguishing different endocrine cells, they labeled mouse islets with a β-cell marker, a Cy5 dye conjugate of Exendin-4 peptide (Ex4) (Scheme 3). Ex4 is a high affinity ligand of the glucagon like peptide 1 receptor (GLP-1R). Since GLP-1R is highly expressed in mouse islet β-cells,^46 fluorescently labeled conjugates of Ex4 are rapidly internalized into β-cells through receptor-mediated endocytosis to mark β-cells.^36, 47 After labeling mouse islets with Ex4-Cy5, the inventors dispersed the islets into single cells and labeled them with ZIGIR-2 (FIG. 10A). […] To identify each subset of cells, the inventors isolated them by FACS and analyzed the sorted cells by immunofluorescence using antibodies against insulin, glucagon, and somatostatin. The immunofluorescence result confirmed that P1 and P2 subsets were essentially pure β-cells (99±0.3%, N=3) and α-cells (98±0.5%, N=3), respectively (FIG. 10C). […] The remaining ˜20% of cells in P3 and most cells in P4 were not stained by any of the three hormone antibodies. These cells likely represented rare […], islet endothelial cells or lymphoid cells, and residual exocrine cells.
# Mouse islets were isolated as previously described (Li et al., 2011) by perfusing Collagenase P (Roche, 1.4 mg/mL in HBSS with 5 mM glucose) through the common bile duct. Following a 15 min digestion at 37° C., the pancreas digestion was washed twice with HBSS by centrifugation and the islets were hand-picked under a dissection scope. Isolated islets were cultured 2-4 hours in RPMI-1640 medium (GIBCO, #11875-093) supplemented with 10% (v/v) FBS, 2.0 mM sodium-pyruvate, 100 U/mL penicillin and […] at 37° C. in 5% CO2. To distinguish islet β-cells from non-β cells, islets were labeled with a fluorescently labeled exendin-4 derivative as previously described (Kim et al., 2017). Briefly, Ex4-Cy5 (100 nM) was added to the culture medium 2 hours before islet dispersion. ZIGIR labeling was carried out subsequently after islet dispersion. Mouse islets were dispersed with 0.05% Trypsin solution in DPBS at 37° C. for 15 min. The dispersed islet cells were incubated with 0.5 μM ZIGIR-1 (or ZIGIR-2) at 37° C. for 15 min in the cell sorting buffer (SAB Buffer containing 3 mM glucose, 0.5% BSA and 0.1 mg/mL DNase I (Roche)). The cells were then washed twice with ice-cold SAB and resuspended in the cell sorting buffer. The labeled cells were analyzed by flow cytometry on a LSRFortessa cell analyzer (BD Biosciences). DAPI (200 ng/mL) was added to the cell suspension prior to flow cytometry to distinguish live cells (DAPI negative) from dead cells (DAPI positive). Only live cells were analyzed.
# [3] = tested on: human islet endocrine cells; test: Flow cytometry analysis and sorting of human islet cells with ZIGIR-2; assay type: cell-based; settings: ZIGIR-2, HPi2 and TM4SF4 labeling
# Source text: Thus far the majority of studies on ZnT8 and Zn^2+ signaling have been carried out in mouse islet cells, and less is known about the expression of ZnT8 and Zn^2+ distribution in human islet endocrine cells. To analyze granular Zn^2+ activity in human islets by flow cytometry, the inventors dispersed human islets into single cells and sequentially labeled them with ZIGIR-2 and antibodies reactive towards human pancreatic endocrine cells and α-cells (FIG. 12A), including the HPi2 antibody (Dorrell et al., 2008) and an antibody of a tetraspanin family member protein TM4SF4 (Muraro et al., 2016), respectively. The islet endocrine cells (HPi2+, FIG. 13) contained a subset of cells showing high ZIGIR-2 signal and low TM4SF4 expression (P1 subset, FIG. 12B). Immunofluorescence analysis of the sorted cells confirmed that the P1 subset was highly enriched with human β-cells (91%), together with a small percent of δ-cells (FIG. 12C). […] They obtained similar flow cytometry results from different human donors and confirmed high enrichments of β-cell or α-cell in P1 or P2 subset (including P2a and P2b), respectively (FIG. 14). […] In addition to containing more glucagon granules, P2a cells might also express more ZnT8 protein than P2b. Future studies using more quantitative techniques such as western blot should help address the issue.
# [4] = ZIGIR-2 and Ex4-Cy5 labeling, N=3
smiles,measurement,setting,value
CN(C)c1ccc2c(-c3ccc(NCCN(CCc4ccccn4)Cc4ccccn4)cc3C(=O)[O-])c3ccc(=[N+](C)C)cc-3oc2c1 [ZIGIR-2],selectivity of fluorescence response for Zn^2+,[1],selective for Zn^2+
same,median fluorescence intensity (MFI) in α-cells versus δ-cells,[2],nearly an order of magnitude stronger
same,"median fluorescence intensity (MFI) in α-cells, weaker than in β-cells",[2],about 5 times
same,α-cells in sorted P2 subset,[2]; [4],98±0.5%
same,β-cells in sorted P1 subset,[2]; [4],99±0.3%
same,δ-cells in sorted P3 subset,[2]; [4],81±4.8%
same,ability to resolve islet cells into subsets by granular Zn^2+ activity,[2]; compared with commercially available Zn^2+ sensors,able to resolve islet cells into distinct subsets
same,α-cell purity of sorted P2a and P2b subsets,[3],> 95%
same,β-cells in sorted P1 subset,[3],91%
